Data reported in patent publication US4372973A, “16-Amino-postaglandin derivatives, their acid addition salts, and a process for the preparation thereof” (priority 1981, dated 1983).
Entries after “also recorded” stand apart in the source; their conditions may differ.

Assays:
guinea pig trachea = experiment: Smooth muscle contraction, trachea; format: cell-based; parameters: key: +: contraction on trachea; O: inactive on trachea; conditions: 1 μg/ml
From the text: (§1) The compounds prepared according to the process of the invention were submitted to several tests developed for detecting the effects of 9α, 11α, 15(S)-trihydroxy-5-cis, 13-trans-prostadienoic acid (PGF2α). From the organs containing smooth muscle guinea pig trachea, ileum and rat uterine horn were used in the trials. The organs were suspended in isotonic salt medium and the potency was registered on the basis of isotonic contractions (Pharmacological Experiments on Isolated Preparations, Ed. W. L. M. Perry and E. S. Livingstone, Edinburgh and London (1970)). The effect exerted on the aggregation of human blood platelets, induced by 5.10^-5 mole/lit. of adenosine-5'-phosphate, was measured in a CHRONO LOG Aggregometer according to A. V. R. Born (J. Physiol. 162, 67 (1962)).

human blood platelets = experiment: Inhibition of blood platelet aggregation; format: cell-based; conditions: 100 μg/ml, induced by 5.10^-5 mole/lit. of adenosine-5'-phosphate
From the text: as §1

[1] = tested on: 15-hydroxy-prostaglandin-dehydrogenase; experiment: 15-Hydroxy-prostaglandin-dehydrogenase substrate test; format: in vitro ADME; parameters: key: substrate; O: no substrate of the enzyme; conditions: In this test the concentration of the compounds 1.10^-4 mole/lit.
Procedure: Beyond these tests it was determined according to P. Tolnay et al. (Acta Biochim. Biophys. Acad. Sci. Hung. 14, 67 (1979)) whether the compounds of the invention are substrates of the 15-hydroxy-prostaglandin-dehydrogenaseenzyme.

rat uterine horn = experiment: Smooth muscle contraction, uterus; format: cell-based; conditions: PGF2α = 1.00
From the text: as §1

guinea pig ileum = experiment: Smooth muscle contraction, ileum; format: cell-based; conditions: PGF2α = 1.00
From the text: as §1

[2] = Laxative effect (diarrhea) at abortive doses; format: in vivo, white mice
Procedure: (§2) The favorable biological properties of the new compounds of the invention are clearly manifested in their abortive effect. The test materials were administered subcutaneously to white mice on the 17th or 18th day of pregnancy, then the deliveries were followed up in the subsequent 48 hours, and the overall status of the excised uterus (scars, embrional residual debris) was evaluated (M. J. R. Harper et al.: Advances in Biosciences 9, 789 (1973)). In groups containing 5 animals the dose effect relationships of PGF2α, its methyl ester, as well as of the new 16-amino-prostaglandin derivatives were determined.

[3] = tested on: white mice on the 17th or 18th day of pregnancy; experiment: Abortive effect in pregnant mice; format: in vivo; conditions: s.c.; for ED50: Mus musculus, sc, 48 h, body weight, white mice, 17th or 18th day of pregnancy, 5 animals per group
Procedure: as §2

Row | SMILES | 15-Hydroxy-prostaglandin-dehydrogenase (substrate or no substrate) [1] | laxative effect ([2]; at abortive doses) | laxative effect ([2]; mouse, in vivo) | diarrhea ([2]; even at the tenfold of the abortive dose) | Smooth muscle contraction Trachea (guinea pig trachea) | inhibition at 100 µg/mL (human blood platelets) [%] | Smooth muscle contraction relative efficiency Uterus (rat uterine horn) | Smooth muscle contraction relative efficiency Ileum (guinea pig ileum) | ED50 [3] [mg/kg] | abortive potency (in words) ([3]; mice, compared to PGF2α, listed as 9 α, 11 α, 15(ksi)-trihydroxy-16(S)-amino-5-cis, 13-trans-prostadienoic acid met)
1 | CCCCC[C@H](O)/C=C/[C@@H]1[C@@H](C/C=C\CCCC(=O)OC)[C@@H](O)C[C@H]1O [PGF2α methyl ester, reference compound] | s | exhibit also a laxative effect | – | – | + | 56 | 1.25 | 0.78 | 6 | –
2 | CCCC[C@@H](N)C(O)/C=C/[C@@H]1[C@@H](C/C=C\CCCC(=O)O)[C@@H](O)C[C@H]1O (single isomer, unassigned) | O | – | – | – | O | – | 0.13 | 0.02 | – | –
3 | CCCC[C@@H](N)C(O)/C=C/[C@@H]1[C@@H](C/C=C\CCCC(=O)OC)[C@@H](O)C[C@H]1O (single isomer, unassigned) | O | – | – | – | O | – | 0.05 | 0.02 | – | –
4 | CCCC[C@H](N)C(O)/C=C/[C@@H]1[C@@H](C/C=C\CCCC(=O)O)[C@@H](O)C[C@H]1O (single isomer, unassigned) | O | – | – | – | – | 75 | 0.83 | 0.11 | – | –

Now from value to compound, other results behind:

Row | 15-Hydroxy-prostaglandin-dehydrogenase (substrate or no substrate) [1] | laxative effect ([2]; at abortive doses) | laxative effect ([2]; mouse, in vivo) | diarrhea ([2]; even at the tenfold of the abortive dose) | SMILES | Smooth muscle contraction Trachea (guinea pig trachea) | inhibition at 100 µg/mL (human blood platelets) [%] | Smooth muscle contraction relative efficiency Uterus (rat uterine horn) | Smooth muscle contraction relative efficiency Ileum (guinea pig ileum) | ED50 [3] [mg/kg] | abortive potency (in words) ([3]; mice, compared to PGF2α, listed as 9 α, 11 α, 15(ksi)-trihydroxy-16(S)-amino-5-cis, 13-trans-prostadienoic acid met)
5 | s | – | exhibit also a laxative effect | – | CCCCC[C@H](O)/C=C/[C@@H]1[C@@H](C/C=C\CCCC(=O)O)[C@@H](O)C[C@H]1O [PGF2α, 9α, 11α, 15(S)-trihydroxy-5-cis, 13-trans-prostadienoic acid, reference compound] | + | 82 | 1.00 | 1.00 | 20 | –
6 | O | – | – | no diarrhea is observed | CCCC[C@H](N)C(O)/C=C/[C@@H]1[C@@H](C/C=C\CCCC(=O)OC)[C@@H](O)C[C@H]1O (single isomer, unassigned) | O | 52 | 0.99 | 0.17 | 0.1 | exceedingly high abortive effect; also recorded: the most active agent
